Measured values published in US11752111B2, “Use of cannabidivarin in the treatment of autism spectrum disorder, associated disorders and schizophrenia” (GW Research Limited, priority 2016, dated 2023).
Entries after “also recorded” stand apart in the source; their conditions may differ. Read-outs that look alike come from different tables or passages of the source.

What was measured:
VPA-exposed rats = test: Short-term memory, novel object recognition test, prenatal VPA model; type: in vivo, rat
Experimental: Pregnant Sprague-Dawley rats (Charles River, Calco, Italy), received a single intraperitoneal injection of 500 mg/kg sodium valproate on the 12.5 day after conception, and control females were injected with physiological saline at the same time. Sodium valproate (Sigma Aldrich, Milan, IT) was dissolved in saline at a concentration of 250 mg/ml.
CBDV was dissolved in ethanol, cremophor and saline (1:1:18). Symptomatic treatment with CBDV at doses of 0.2, 2, 20, and 100 mg/kg/day i.p. was performed starting from PND 34 (early adolescence) till 56 (early adulthood), both in male and female offspring of dams injected with VPA 500 mg/kg (or vehicle) on day 12.5 after conception. […]
Short-term memory: The experimental apparatus used for the object recognition test was an open-field box (43×43×32 cm) made of Plexiglas, placed in a dimly illuminated room. The experiment was performed and analysed as previously described (Zamberletti et al, 2014). […]
Each animal was placed in the arena and allowed to explore two identical previously unseen objects for 5 minutes (familiarization phase). […] During the test phase the time spent exploring the familiar object (Ef) and the new object (En) was videotaped and recorded separately by two observers blind to the treatment groups and the discrimination index was calculated as follows: [(En−Ef)/(En+Ef)]×100.

[1] = test system: GFAP, CD11b, TNFα expression in the hippocampus; test: Neuroinflammation studies, hippocampus protein expression by Western blotting, prenatal VPA model; type: in vivo, rat
Experimental: At the end of the study, on PND 59, male rats treated with CBDV 20 mg/kg i.p. were sacrificed and the hippocampus was collected 24 hours after the last CBDV injection and stored at −80° C. for evaluation of changes in protein expression of components of the endocannabinoid system (CB1 and CB2 receptors, the endocannabinoid degrading enzymes, FAAH and MAGL and the synthetic enzymes, DAGLα and NAPE-PLD); neuroinflammatory markers (GFAP (astrocytic marker), Iba1 (microglial marker), CD11b (activated microglial marker), TNF-α (proinflammatory cytokine) and iNOS (inflammatory mediator)); synaptic markers (Synaptophysin (synaptic vesicle protein), PSD-95 (post synaptic density protein) and the neurotrophins, BDNF and IGF by Western blotting.

Fmr1 KO mice = test: Audiogenic seizure susceptibility, Fmr1 KO (FXS) mice; type: in vivo, mouse; conditions: for audiogenic seizures: FXS mice PND21
Experimental: (§1) This trait was evaluated in PND21 mice after acute administration of the compounds or its vehicle, 30 min before starting the procedure. To measure audiogenic seizure sensitivity mice were placed individually into a novel environment, a glass cylinder (40 cm high, 16 cm diameter) and allowed to explore for 1 min. Next, a bell (100 dB) was rung for 30 sec and seizure activity scored according to the following scale: no response, 0; wild running, 1; clonic seizure, 2; tonic seizure, 3; status epilepticus/respiratory arrest/death, 4.
(§2) On postnatal day 21 (PND21) WT and Fmr1 KO mice were injected with CBDV (2, 10, 20 or 100 mg/kg) or vehicle, 30 min before exposure to a bell ring (100 dB). Mice exposed to this noise for 30 sec ceased from their normal exploratory behaviour and reacted with gradually to wild-running, clonic seizure, tonic seizure or death. The maximum response was annotated for each mouse as detailed in Table 2 below. A score was calculated according to the severity of the symptoms as explained in the Methods section.

WT mice = test: Audiogenic seizure susceptibility, WT mice; type: in vivo, mouse; conditions: WT PND21
Experimental: as §1, §2

MeCP2 KO mice = test: Survival in Rett syndrome model; type: in vivo, mouse
Experimental: CBDV was administered daily at the dose of 2, 20 and 200 mg/kg i.p. starting from PND 28 and the following signs were scored every other day: hindlimb clasping (indication of motor imbalance), tremor, gait (measure of coordination), breathing, mobility and general condition.
Starting from PND 28, mice received a daily intraperitoneal injection of CBDV (or vehicle) at the dose of 2, 20 and 200 mg/kg. Animals were then scored every other day to evaluate the effect of CBDV treatment on motor symptoms (hindlimb clasping, gait, mobility) as well as neurological signs and general conditions (breathing abnormalities, tremors and general condition) present in MeCP2 knockout (KO) mice.

Ube3am-/p+ (AS) mice = test: Tail suspension test in Angelman syndrome model; type: in vivo, mouse; conditions: CBDV 20 mg/kg i.p.; AS mice vs AS vehicle
Experimental: Heterozygous mice with maternal deficiency of Ube3A (Ube3am−/p+) and wild type (Ube3am+/p+) were purchased from The Jackson Laboratory (Jackson code: B6.129S7-Ube3a tm1Alb/J) and maintained in a C57BL/6 background.
Drugs were dissolved in 1:1:18 ethanol:cremophor:0.9% saline, for intraperitoneal (i.p.) administration. Drug treatment was performed daily for 35 days. CBDV was administered at 20 mg/kg.
Tail suspension: The tail suspension test assesses depressive-like behaviour in mice. Mice were individually suspended by the tail on a horizontal bar (50 cm from floor) using adhesive tape placed approximately 4 cm from the tip of the tail. The duration of immobility was recorded in seconds over a period of 6 minutes by a time recorder. Immobility time was defined as the absence of escape-oriented behaviour.

[2] = FXS (Fmr1 KO) PND21, CBDV 2 mg/kg acute, n = 5
[3] = FXS (Fmr1 KO) PND21, CBDV 10 mg/kg acute, n = 5
[4] = FXS (Fmr1 KO) PND21, CBDV 20 mg/kg acute, n = 5
[5] = FXS (Fmr1 KO) PND21, CBDV 100 mg/kg acute, n = 5

Q: How did the “short-term memory deficit, discrimination index (FIG. 2C)” value (VPA-exposed rats; 2, 20 and 100 mg/kg, male and female VPA rats) turn out when `C=C(C)[C@@H]1CCC(C)=C[C@H]1c1c(O)cc(CCC)cc1O` [CBDV, Cannabidivarin] was run?
A: completely and significantly reversed

Q: What about the “recognition memory per se” value (VPA-exposed rats; vehicle-treated (non VPA) rats) of the same molecule?
A: without affecting per se recognition memory

Q: And the “expression of inflammatory markers that were increased (GFAP, CD11b, TNFα) in hippocampus (FIG. 2D)” value ([1]; chronic CBDV 20 mg/kg i.p., male VPA-exposed rats)?
A: completely normalised

Q: And the “expression of inflammatory markers in hippocampus (FIG. 2D)” value ([1]; chronic CBDV, control rats)?
A: no effect

Q: What about the “maximum response: No response (number of mice)” value (“maximum response: No response” for short) (Fmr1 KO mice) of the same molecule?
A: 2

Q: And the “maximum response: Clonic seizure (number of mice)” value (from here on “maximum response: Clonic seizure”) (Fmr1 KO mice; [2])?
A: 0

Q: And the “maximum response: Death (number of mice)” value (Fmr1 KO mice; [2])?
A: 0

Q: What about the “maximum response: Tonic seizure (number of mice)” value (“maximum response: Tonic seizure” for short) (Fmr1 KO mice; [2]) of the same molecule?
A: 2

Q: What about the “maximum response: Wild running (number of mice)” value (“maximum response: Wild running” below) (Fmr1 KO mice; [2]) of the same molecule?
A: 1

Q: What about the “maximum response: Clonic seizure” value (Fmr1 KO mice; [3]) of the same molecule?
A: 0

Q: What about the “maximum response: Death (number of mice)” value (Fmr1 KO mice; [3]) of the same molecule?
A: 0

Q: What about the “maximum response: No response” value (Fmr1 KO mice; [3]) of the same molecule?
A: 0

Q: And the “maximum response: Tonic seizure” value (Fmr1 KO mice; [3])?
A: 2

Q: And the “maximum response: Wild running” value (Fmr1 KO mice; [3])?
A: 3

Q: And the “maximum response: Clonic seizure” value (Fmr1 KO mice; [4])?
A: 0

Q: What about the “maximum response: Death (number of mice)” value (Fmr1 KO mice; [4]) of the same molecule?
A: 0

Q: And the “maximum response: No response” value (Fmr1 KO mice; [4])?
A: 2

Q: And the “maximum response: Tonic seizure” value (Fmr1 KO mice; [4])?
A: 2

Q: What about the “maximum response: Wild running” value (Fmr1 KO mice; [4]) of the same molecule?
A: 1

Q: What about the “maximum response: Clonic seizure” value (Fmr1 KO mice; [5]) of the same molecule?
A: 0

Q: And the “maximum response: Death (number of mice)” value (Fmr1 KO mice; [5])?
A: 0

Q: And the “maximum response: No response” value (Fmr1 KO mice; [5])?
A: 5

Q: What about the “maximum response: Tonic seizure” value (Fmr1 KO mice; [5]) of the same molecule?
A: 0

Q: And the “maximum response: Wild running” value (Fmr1 KO mice; [5])?
A: 0

Q: What about the audiogenic seizures (Fmr1 KO mice; acute 100 mg/kg) of the same molecule?
A: remained seizure free; also recorded: completely eliminate the seizures

Q: What about the audiogenic seizures (Fmr1 KO mice; acute lower doses (2, 10, 20 mg/kg)) of the same molecule?
A: experienced seizures of varying severity

Q: What about the “maximum response: Clonic seizure” value (WT mice; CBDV 2 mg/kg acute, n = 6) of the same molecule?
A: 0

Q: And the “maximum response: Death (number of mice)” value (WT mice; CBDV 2 mg/kg acute, n = 6)?
A: 0

Q: And the “maximum response: Tonic seizure” value (WT mice; CBDV 2 mg/kg acute, n = 6)?
A: 0

Q: What about the “maximum response: Wild running” value (WT mice; CBDV 2 mg/kg acute, n = 6) of the same molecule?
A: 0

Q: What about the “maximum response: Clonic seizure” value (WT mice; CBDV 10 mg/kg acute, n = 5) of the same molecule?
A: 0

Q: And the “maximum response: Death (number of mice)” value (WT mice; CBDV 10 mg/kg acute, n = 5)?
A: 0

Q: What about the “maximum response: Tonic seizure” value (WT mice; CBDV 10 mg/kg acute, n = 5) of the same molecule?
A: 0

Q: What about the “maximum response: Wild running” value (WT mice; CBDV 10 mg/kg acute, n = 5) of the same molecule?
A: 0

Q: And the “maximum response: Clonic seizure” value (WT mice; CBDV 20 mg/kg acute, n = 6)?
A: 0

Q: What about the “maximum response: Death (number of mice)” value (WT mice; CBDV 20 mg/kg acute, n = 6) of the same molecule?
A: 0

Q: And the “maximum response: Tonic seizure” value (WT mice; CBDV 20 mg/kg acute, n = 6)?
A: 0

Q: What about the “maximum response: Wild running” value (WT mice; CBDV 20 mg/kg acute, n = 6) of the same molecule?
A: 1

Q: What about the “maximum response: Clonic seizure” value (WT mice; CBDV 100 mg/kg acute, n = 6) of the same molecule?
A: 0

Q: What about the “maximum response: Death (number of mice)” value (WT mice; CBDV 100 mg/kg acute, n = 6) of the same molecule?
A: 0

Q: What about the “maximum response: Tonic seizure” value (WT mice; CBDV 100 mg/kg acute, n = 6) of the same molecule?
A: 0

Q: And the “maximum response: Wild running” value (WT mice; CBDV 100 mg/kg acute, n = 6)?
A: 0

Q: And the survival rate (MeCP2 KO mice; CBDV 200 mg/kg, PND 67, vehicle 25%)?
A: 75%

Q: What about the “survival measured at PND 67 (FIG. 5)” value (MeCP2 KO mice; all three doses (2, 20, 200 mg/kg)) of the same molecule?
A: increase survival

Q: What about the “duration of immobility time, tail suspension (FIG. 14)” value (Ube3am-/p+ (AS) mice) of the same molecule?
A: significantly reduced the duration of immobility time
